Data taken from ChEMBL document CHEMBL4339189, “Dissymmetric pyridyl-substituted 3,5-bis(arylidene)-4-piperidones as anti-hepatoma agents by inhibiting NF-κB pathway activation” (Eur J Med Chem, 2019).
Active and inactive are the calls of the source. No cut-off for these calls is given here.

Experiments:
[1] = test system: Mus musculus; test: Antiinflammatory activity in human HepG2 cells xenografted Balb/c nude mouse assessed as reduction in TNFalpha protein expression at 1 mg/kg, ip administered every 2 days for 20 days and measured every 2 days by immunohistochemistry; assay type: functional, organism-based
[2] = test system: L02; test: Cytotoxicity against human LO2 cells assessed as reduction in cell viability incubated for 24 hrs by MTT assay; assay type: cell-based; conditions: L02, 24 h
[3] = test system: HepG2; test: Induction of apoptosis in human HepG2 cells assessed as increase in apoptotic cell population at 2.0 uM incubated for 24 hrs by Annexin V-FITC/propidium iodide staining based flow cytometry relative to control; assay type: functional
[4] = test system: HepG2; test: Induction of apoptosis in human HepG2 cells assessed as increase in apoptotic cell population at 4.0 uM incubated for 24 hrs by Annexin V-FITC/propidium iodide staining based flow cytometry relative to control; assay type: functional
[5] = test system: HepG2; test: Induction of apoptosis in human HepG2 cells assessed as increase in Bax expression up to 4 uM after 24 hrs by Western blot analysis; assay type: functional, cell-based
[6] = target: T1, NF-kappa-B inhibitor alpha (Mus musculus) (UniProt Q9Z1E3); test: Inhibition of NFkappaB signalling activation in mouse RAW264.7 cells assessed as reduction in […] IkBalpha phosphorylation at 1 to 4 uM incubated for 2 hrs after pre-incubation with LPS for 15 mins by Western blot analysis; assay type: cell-based
T1 sequence (whole entry): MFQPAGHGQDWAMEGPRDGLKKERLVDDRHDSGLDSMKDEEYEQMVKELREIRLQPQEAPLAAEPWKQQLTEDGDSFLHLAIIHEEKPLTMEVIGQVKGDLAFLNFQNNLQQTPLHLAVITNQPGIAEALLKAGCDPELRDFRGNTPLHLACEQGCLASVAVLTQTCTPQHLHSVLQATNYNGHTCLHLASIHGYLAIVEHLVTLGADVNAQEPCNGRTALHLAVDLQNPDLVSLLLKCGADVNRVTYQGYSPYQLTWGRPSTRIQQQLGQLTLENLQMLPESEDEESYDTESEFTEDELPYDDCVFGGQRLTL

[7] = target: Transcription factor p65 (Mus musculus) (UniProt Q04207); test: Inhibition of NFkappaB activation in mouse RAW264.7 cells assessed as reduction in TNFalpha-induced p65 phosphorylation at 1 to 4 uM incubated for 2 hrs after pre-incubation with LPS for 15 mins by Western blot analysis; assay type: cell-based
[8] = test system: HepG2; test: Induction of apoptosis in human HepG2 cells xenografted in Balb/c nude mouse assessed as reduction in Bcl-2 protein expression at 0.1 mg/kg, ip administered every 2 days for 20 days and measured every 2 days by immunohistochemistry; assay type: functional, organism-based
[9] = test system: Mus musculus; test: Antiinflammatory activity in human HepG2 cells xenografted Balb/c nude mouse assessed as reduction in TNFalpha protein expression at 10 mg/kg, ip administered every 2 days for 20 days and measured every 2 days by immunohistochemistry; assay type: functional, organism-based

Sequence of Transcription factor p65 (Mus musculus) (Q04207 whole entry): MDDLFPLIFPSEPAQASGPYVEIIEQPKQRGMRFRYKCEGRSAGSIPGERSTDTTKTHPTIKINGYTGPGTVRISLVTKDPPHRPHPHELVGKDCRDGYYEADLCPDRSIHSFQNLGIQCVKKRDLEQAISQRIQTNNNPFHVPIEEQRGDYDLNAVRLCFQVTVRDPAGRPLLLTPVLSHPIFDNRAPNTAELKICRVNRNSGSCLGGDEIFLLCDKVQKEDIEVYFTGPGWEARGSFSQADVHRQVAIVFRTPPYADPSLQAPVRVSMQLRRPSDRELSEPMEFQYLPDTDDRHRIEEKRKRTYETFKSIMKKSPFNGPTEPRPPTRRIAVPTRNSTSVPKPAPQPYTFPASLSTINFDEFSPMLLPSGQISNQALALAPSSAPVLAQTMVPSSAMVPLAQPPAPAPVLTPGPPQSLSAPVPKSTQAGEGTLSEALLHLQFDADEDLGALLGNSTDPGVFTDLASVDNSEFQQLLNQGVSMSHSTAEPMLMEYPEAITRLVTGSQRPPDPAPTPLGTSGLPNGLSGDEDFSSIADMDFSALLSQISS

inhibition [6]: Dose-dependent effect | inhibition [7]: Dose-dependent effect
SMILES: O=C1/C(=C/c2cccnc2)CN(S(=O)(=O)c2ccc(C(F)(F)F)cc2)C/C1=C\c1ccccc1C(F)(F)F
Activity [1]: Active | IC50 [2]: 14.3 µM | Activity [3]: 40% | Activity [4]: >70% | Activity [5]: Dose-dependent effect | Activity [8]: inactive | Activity [9]: Active
